# Earlier results in US11098113B2, “Immunoglobulin single variable domains directed against macrophage migration inhibitory factor” (VIB VZW, priority 2016, dated 2021).
# Test system: LPS stimulated RAW264.7 macrophages
# Conditions: ISO-1 at 10 μM, same in vitro conditions; cited from earlier work
structure (smiles),measurement,value
"COC(=O)C[C@@H]1CC(c2ccc(O)cc2)=NO1 (racemic) [ISO-1, (S,R)-3-(4-hydroxyphenyl)-4,5-dihydro-5-isoxazole acetic acid methyl ester]",inhibition of TNF production,about 50%
